Assay [1] relates to Kocuria rhizophila. Kind of assay: Antibacterial activity against Kocuria rhizophila ATCC9341 assessed as inhibition of bacterial growth incubated for 20 hrs by liquid microculture method. The format is functional.
For assay [2], the system named is Staphylococcus aureus. Kind of assay: Antibacterial activity against Staphylococcus aureus FDA209P JC-1 assessed as inhibition of bacterial growth incubated for 20 hrs by liquid microculture method. The format is functional.
Assay [3] relates to P388. As to the kind of experiment: Cytotoxicity against mouse P388 cells assessed as inhibition of cell growth incubated for 48 hrs by MTT assay. The format is functional, cell-based. The conditions noted are these: P388, 48 h. Background: Formazan colour is commonly taken as a measure of viable cells.

SMILES strings stand for the structures. Converted amounts (≈) assume the structure as drawn.

One may read the MIC as the lowest concentration found to suppress growth. As usually defined, the IC50 is the concentration at which inhibition is half-maximal.

For the compound `C/C=C(\C)[C@H]1OC(=O)[C@H](C)[C@@H](O[C@@H]2O[C@@H](C)[C@@H](O)[C@@H](O)[C@H]2O)/C(C)=C/C=C/[C@H](C)C/C(C)=C/[C@@H](C)[C@H](O)C[C@@H](O)/C(C)=C/[C@H]1C`, the values for the minimal inhibitory concentration (MIC) in assay [1] and in assay [2] were 25 µg/mL (≈ 39.4 µM) and 50 µg/mL (≈ 78.8 µM), respectively. In assay [3], the half-maximal inhibitory concentration (IC50) stood at 13.9 µM.
On to `C/C=C(\CC)[C@H]1OC(=O)[C@H](C)[C@@H](O[C@@H]2O[C@@H](C)[C@@H](O)[C@@H](O)[C@H]2O)/C(C)=C/C=C/[C@H](C)C/C(C)=C/[C@@H](C)[C@H](O)C[C@@H](O)/C(C)=C/[C@H]1C`, for which, in assay [1], the MIC worked out at 25 µg/mL (≈ 38.5 µM). Also, the IC50 in assay [3] was found to be 8.4 µM.
For `C/C=C(\C)[C@H]1OC(=O)[C@H](C)[C@@H](O)/C(C)=C/C=C/[C@H](C)C/C(C)=C/[C@@H](C)[C@H](O)C[C@@H](O)/C(C)=C/[C@H]1C`, the MIC in assay [1] came to 25 µg/mL (≈ 51.2 µM). Besides, in assay [3], the IC50 was 3.9 µM.

The values above are taken from ChEMBL document CHEMBL5236622, “Krasilnikolides A and B and Detalosylkrasilnikolide A, Cytotoxic 20-Membered Macrolides from the Genus Krasilnikovia: Assignment of Anomeric Configuration by J-Based Configuration Analysis” (J Nat Prod, 2022).
